Test results as given in patent US20260297542A1, “HERBICIDE RESISTANT PLANTS” (SYNGENTA CROP PROTECTION AG, priority 2023, published 2026).
Numbering of substitutions follows the chain as printed.

Assays:
[1] = target: T1, AtPPO1 S305L Y426M (SEQ ID NO.124) (Arabidopsis thaliana, UniProt P55826, S305L/Y426M); test: fluorescent Protoporphyrinogen Oxidase assay, crude extract; type: biochemical; details: read-out: percentage inhibition
T1 construct: made in house; host or cells: E. coli BL21 (DE3) hemG, crude extract
T1 sequence (P55826 35-537 S305L/Y426M): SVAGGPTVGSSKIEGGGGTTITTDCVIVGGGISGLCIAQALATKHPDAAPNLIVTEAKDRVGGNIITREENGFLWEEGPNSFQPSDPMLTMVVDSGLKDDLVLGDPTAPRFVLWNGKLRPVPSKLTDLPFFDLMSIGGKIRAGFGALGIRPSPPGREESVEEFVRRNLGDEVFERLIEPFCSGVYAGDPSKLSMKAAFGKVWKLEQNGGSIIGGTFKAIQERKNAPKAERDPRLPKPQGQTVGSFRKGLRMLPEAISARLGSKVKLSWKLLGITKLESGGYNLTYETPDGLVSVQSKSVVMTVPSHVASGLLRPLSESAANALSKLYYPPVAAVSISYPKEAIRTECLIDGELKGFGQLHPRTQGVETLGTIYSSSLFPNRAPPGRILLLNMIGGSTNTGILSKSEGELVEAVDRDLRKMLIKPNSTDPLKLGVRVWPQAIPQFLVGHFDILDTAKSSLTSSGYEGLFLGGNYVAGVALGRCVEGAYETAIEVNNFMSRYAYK

[2] = target: T2, AtPPO1 V365L G404A L479N (SEQ ID NO.136) (Arabidopsis thaliana, UniProt P55826, G404A/L479N/V365L); test: as above; type: biochemical; details: read-out: percentage inhibition
T2 construct: made in house; host or cells: E. coli BL21 (DE3) hemG, crude extract
T2 sequence (P55826 35-537 V365L/G404A/L479N): T1 sequence (P55826 35-537 S305L/Y426M) with L271S, V331L, G370A, M392Y, L445N

Structure (SMILES)	inhibition at 0.1 ppm [1]	inhibition at 1 ppm [1]	inhibition at 10 ppm [1]	inhibition at 100 ppm [1]	inhibition at 0.1 ppm [2]	inhibition at 1 ppm [2]	inhibition at 10 ppm [2]	inhibition at 100 ppm [2]
CC(C)N(C)S(=O)(=O)NC(=O)c1cc(-n2c(=O)cc(C(F)(F)F)n(C)c2=O)c(F)cc1Cl [Herbicide E, saflufenacil]	38%	78%	100%	96%	0%	39%	86%	100%
C#CCN1C(=O)C(F)(F)Oc2cc(F)c(-n3c(=O)n(C)c(=S)n(C)c3=O)cc21 [Herbicide B, trifludimoxazin]	100%	100%	100%	100%	79%	100%	100%	100%
CCOC(=O)COc1ncccc1Oc1cc(-n2c(=O)cc(C(F)(F)F)n(C)c2=O)c(F)cc1Cl [Herbicide A, epyrifenacil]	34%	82%	100%	100%	58%	95%	100%	100%
CCOC(=O)C1(C)CC(c2cc(-n3c(=O)cc(C(F)(F)F)n(C)c3=O)c(F)cc2Cl)=NO1 (stereo not shown) [Herbicide C, 3-(2-chloro-4-fluoro-5-(3-methyl-2,6-dioxo-4-trifluoromethyl-3,6-dihydropyrimidin-1(2H)-yl)phenyl)-5-methyl-4,5-dihydroisoxazole-5-carboxylic acid ethyl ester]	77%	88%	100%	100%	34%	90%	99%	100%
CCOC(=O)[C@]1(C)CC(c2cc(-n3c(=O)n(C)c(=S)n(C)c3=O)c(F)cc2Cl)=NO1 [Herbicide D, ethyl (5S)-3-[2-chloro-5-(3,5-dimethyl-2,6-dioxo-4-thioxo-1,3,5-triazinan-1-yl)-4-fluoro-phenyl]-5-methyl-4H-isoxazole-5-carboxylate]	53%	85%	100%	100%	4%	75%	99%	100%
